Data: article PMC9143738, “New Chemotypes for the Inhibition of (p)ppGpp Synthesis in the Quest for New Antimicrobial Compounds” (Molecules, 2022)

Experiments:
Format in all cases: binding, S. equisimilis
[1] = target: T1, RelSeq 1–385 (Streptococcus dysgalactiae subsp. equisimilis, UniProt Q54089); assay: Thermal shift assay on RelSeq 1–385
T1 construct: His-tag (C); host or cells: BL21(DE3) Escherichia coli
Excerpt: Thermal shift is an experimental technique in which protein thermal denaturation is monitored following the increase in fluorescence reported by a protein-bound dye. In particular, an environment-sensitive hydrophobic dye (e.g., SYPRO Orange) binds to hydrophobic regions that become progressively exposed during thermal denaturation, resulting in an increase in its fluorescence emission. Since the binding of small molecules (e.g., fragments) to the protein can cause conformational changes that affect its melting temperature, this technique allows the screening of several compounds in a range of concentrations without consuming sizeable amounts of protein.
We therefore evaluated the affinity of the 18 fragments selected from our in silico screening for the bifunctional protein RelSeq by titration of the protein in a thermal shift assay (Table 1).
(§1) Thermal shift assays on selected fragments vs. RelSeq constructs. The binding of the selected fragments to RelSeq constructs was assessed by titration of the protein in thermal shift assays, performed using a Step One Real-Time PCR system (Thermo Fisher Scientific, Waltham, MA, USA). Assays were performed in 20 mM Tris-HCl, pH 8, containing 150 mM NaCl. The final protein concentration was kept at 0.5 mg/mL for all RelSeq constructs, and the fluorescent Protein Thermal Shift Dye (Thermo Fisher Scientific, Waltham, MA, USA) was used to monitor protein unfolding within the excitation/emission ranges 470–505/540–700 nm. […] Assays were performed in triplicate at a final volume of 15 µL in MicroAmp™ Fast Optical 48-well reaction plates (Thermo Fisher Scientific, Waltham, MA, USA) sealed with adhesive films. Plates were heated from 25 to 90 °C with a heating rate of 0.5 °C/min. The Kd of protein–ligand complexes engaged by RelSeq constructs with the tested fragments was calculated from the plot of protein melting temperature variations as a function of fragment concentrations with the equation for Ligand Binding (1 site) provided with the software GraFit 5.0 (Erithacus Software, Staines, UK).

[2] = target: T2, RelSeq SYNTH (residues 79–385) (Streptococcus dysgalactiae subsp. equisimilis, UniProt Q54089); assay: Thermal shift assay on RelSeq SYNTH; details: titration 0.3–10 mM, pH 8
T2 construct: His-tag (C); made in house; host or cells: BL21(DE3) Escherichia coli
Description: as §1, with “USA).” for “USA). Assays were performed in 20 mM Tris-HCl, pH 8, containing 150 mM NaCl. The final protein concentration was kept at 0.5 mg/mL for all RelSeq constructs, and the fluorescent Protein Thermal Shift Dye (Thermo Fisher Scientific, Waltham, MA, USA) was used to monitor protein unfolding within the excitation/emission ranges 470–505/540–700 nm.”

[3] = target: T3, RelSeq HYD (residues 1–224) (Streptococcus dysgalactiae subsp. equisimilis, UniProt Q54089); assay: Thermal shift assay on RelSeq HYD; details: titration 0.3–10 mM, pH 8
T3 construct: His-tag (C); made in house; host or cells: BL21(DE3) Escherichia coli
Description: as §1, with “USA).” for “USA). Assays were performed in 20 mM Tris-HCl, pH 8, containing 150 mM NaCl. The final protein concentration was kept at 0.5 mg/mL for all RelSeq constructs, and the fluorescent Protein Thermal Shift Dye (Thermo Fisher Scientific, Waltham, MA, USA) was used to monitor protein unfolding within the excitation/emission ranges 470–505/540–700 nm.”

[4] = target: T1, RelSeq 1–385; assay: STD-NMR with RelSeq (1–385); details: fragment:protein ratio 1000:1; fragment concentration 3 mM
Description: (§2) The relatively weak affinity of the fragments measured by TSA directed us towards NMR methods to assess the specificity of the fragments-protein interactions. […] In particular, STD (Saturation Transfer Difference) exploits NOE effects between the protein and the ligand to map target–ligand interactions and to characterize biologically relevant complexes.
(§3) STD-NMR experiments on selected fragments vs. RelSeq constructs. Experiments were performed on a 600 MHz Bruker Avance spectrometer. All experiments were acquired at 298 and 283 K on the free ligands in deuterated phosphate buffer pH 7.4. A DMSO-d6 percentage of about 5% was added to dissolve the fragments. In 1D spectra, water suppression was achieved by excitation sculpting sequence. STD NMR experiments were performed using WATERGATE 3-9-19 pulse sequence for water suppression. On-resonance irradiation of the protein was performed at a chemical shift of −0.05 ppm and 10 ppm; off-resonance irradiation was applied at 200 ppm, where no protein signals were visible. Selective pre-saturation of the protein was achieved by a train of Gauss-shaped pulses of 49 ms in length each. STD spectra were acquired with a saturation time of 2.94 s for all compounds. Blank experiments were conducted in the absence of protein in order to avoid artifacts.

[5] = target: T4, RelSeq SYNTH (79–385) (Streptococcus dysgalactiae subsp. equisimilis, UniProt Q54089); assay: STD-NMR with RelSeq SYNTH; details: fragment:protein ratio 1000:1; fragment concentration 3 mM
T4 construct: His-tag (C); made in house; host or cells: BL21(DE3) Escherichia coli
Description: as §2, §3

[6] = target: T5, RelSeq HYD (1–224) (Streptococcus dysgalactiae subsp. equisimilis, UniProt Q54089); assay: STD-NMR with RelSeq HYD; details: fragment:protein ratio 1000:1; fragment concentration 3 mM
T5 construct: His-tag (C); made in house; host or cells: BL21(DE3) Escherichia coli
Description: as §2, §3

[7] = target: T1, RelSeq 1–385; assay: Tryptophan assay; details: read-out: Kd RelSeq 1–385 measured by tryptophan assay (converted)
Excerpt: With the aim of studying protein–ligand interactions between RelSeq constructs and selected fragments, we evaluated the use of different techniques, such as tryptophan assay, microscale thermophoresis (MST), isothermal calorimetry (ITC) or thermal shift assay (TSA). The tryptophan assay is based on ligand-induced conformational changes in the local environment surrounding tryptophan residues in the target protein. Irradiation at 280 nm is followed by the detection of tryptophan fluorescence emission at different wavelengths. We used this technique to measure the Kd values of the natural substrates GDP and ATP (see below), but it is not applicable in the case of fragments due to their high absorbance at 280 nm. On the other hand, the currently available protein-labeling reagents for MST were not compatible with our protein constructs. We chose TSA over ITC due to its higher potential throughput and lower amount of protein required.

[8] = thermal shift assay, titration 0.3–10 mM, pH 8

T1 sequence (Q54089 1-385): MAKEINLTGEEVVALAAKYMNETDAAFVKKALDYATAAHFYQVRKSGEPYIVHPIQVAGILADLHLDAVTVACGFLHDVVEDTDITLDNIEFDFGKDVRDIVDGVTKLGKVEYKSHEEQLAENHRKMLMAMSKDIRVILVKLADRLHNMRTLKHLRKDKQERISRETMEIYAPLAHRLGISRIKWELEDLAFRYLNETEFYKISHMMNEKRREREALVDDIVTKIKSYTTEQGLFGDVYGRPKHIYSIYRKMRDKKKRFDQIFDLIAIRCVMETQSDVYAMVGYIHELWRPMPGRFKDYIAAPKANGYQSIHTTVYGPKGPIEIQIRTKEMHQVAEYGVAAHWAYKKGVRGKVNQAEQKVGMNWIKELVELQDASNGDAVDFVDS
T3 sequence (Q54089 1-224): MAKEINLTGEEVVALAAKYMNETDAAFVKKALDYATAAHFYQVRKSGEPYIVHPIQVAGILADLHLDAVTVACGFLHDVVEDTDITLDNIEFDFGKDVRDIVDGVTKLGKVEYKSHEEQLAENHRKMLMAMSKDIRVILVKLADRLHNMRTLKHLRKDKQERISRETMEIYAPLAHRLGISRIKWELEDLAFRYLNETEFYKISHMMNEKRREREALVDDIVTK
T2 sequence (Q54089 79-385): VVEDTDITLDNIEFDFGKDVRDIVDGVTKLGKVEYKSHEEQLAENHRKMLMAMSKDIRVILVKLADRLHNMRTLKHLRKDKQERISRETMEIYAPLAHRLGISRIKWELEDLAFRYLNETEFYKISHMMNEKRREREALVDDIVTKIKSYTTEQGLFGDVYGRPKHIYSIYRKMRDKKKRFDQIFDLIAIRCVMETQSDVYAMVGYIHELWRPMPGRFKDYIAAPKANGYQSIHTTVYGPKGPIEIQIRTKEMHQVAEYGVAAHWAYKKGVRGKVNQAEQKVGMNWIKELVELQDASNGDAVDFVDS
T5 sequence (Q54089 1-224): as the sequence (Q54089 1-224) above
T4 sequence (Q54089 79-385): as the sequence (Q54089 79-385) above

SMILES | Kd [1] | Kd [2] | Kd RelSeq HYD [3] | other results
CC(C)c1cc(C(=O)O)nc2ncnn12 [TP1] | 3.4 ± 0.8 mM | 8.3 ± 1.6 mM | No binding | –
O=C(O)c1ccc2nn[nH]c2c1 [BT1] | – | – | No binding | Kd RelSeq 1–385 [1, 8]: No binding; Kd RelSeq SYNTH [2]: No binding
Nc1c(Cl)cc(Cl)cc1C(=O)O [A2] | – | – | No binding | Kd RelSeq 1–385 [1, 8]: No binding; Kd RelSeq SYNTH [2]: No binding; STD-NMR interaction with RelSeq (1–385) [4]: did not show any significant interaction
Nc1ccc(C(=O)O)c(Cl)c1 [A6] | 4.3 ± 1.1 mM | 6.5 ± 1.2 mM | No binding | –
COc1ccc(C(=O)O)cc1N [A5] | 1.1 ± 0.2 mM | 2.2 ± 0.4 mM | No binding | –
O=C(O)Cc1c[nH]c2ccc(F)cc12 [I4] | 3.2 ± 0.7 mM | > 15 mM | No binding | –
Nc1ccccc1C(=O)O [A1] | 1.2 ± 0.3 mM | 10.8 ± 2.2 mM | No binding | STD-NMR interaction with RelSeq (1–385) [4]: good interaction for the aromatic protons; STD-NMR interaction with RelSeq SYNTH (79–385) [5]: Comparable overall STD intensities; STD-NMR interaction with RelSeq HYD (1–224) [6]: did not produce any magnetization transfer
Nc1cccc(C(=O)O)c1 [A4] | 6.6 ± 0.1 mM | 9.8 ± 2.8 mM | No binding | –
O=C(O)c1cc2nc[nH]c2cc1C(=O)O [B4] | – | – | No binding | Kd RelSeq 1–385 [1, 8]: No binding; Kd RelSeq SYNTH [2]: No binding
O=C(O)c1ccc2[nH]cnc2c1 [B2] | – | – | – | Kd RelSeq 1–385 [1, 8]: Biphasic; Kd RelSeq SYNTH [2]: No binding; Kd [3]: 1.9 ± 0.7 mM
O=C(O)c1ccc2[nH]ccc2c1 [I2] | 2.5 ± 0.6 mM | 5.5 ± 0.9 mM | No binding | –
Nc1ccc(F)cc1C(=O)O [A3] | 1.5 ± 0.1 mM | 5.5 ± 0.9 mM | No binding | –
OCc1ccc2[nH]cnc2c1 [B1] | – | – | No binding | Kd RelSeq 1–385 [1, 8]: No binding; Kd RelSeq SYNTH [2]: No binding; STD-NMR interaction with RelSeq (1–385) [4]: did not show any significant interaction
O=C(O)c1cccc2[nH]ccc12 [I3] | 4 ± 0.5 mM | 9.9 ± 4.5 mM | No binding | –
O=C(O)c1ccc2ocnc2c1 [BO1] | 2.2 ± 0.3 mM | 2.7 ± 0.6 mM | No binding | –
COc1cc(C(=O)O)ccc1N [A7] | 4 ± 0.9 mM | 4.3 ± 0.5 mM | No binding | –
Nc1ncnc2c1ncn2[C@@H]1O[C@H](COP(=O)(O)OP(=O)(O)OP(=O)(O)O)[C@@H](O)[C@H]1O [ATP, reference compound] | – | – | – | Kd ([1]; thermal shift assay, titration 0.3–10 mM, pH 8, read-out: Kd RelSeq 1–385): 0.49 ± 0.09 mM; Kd [7]: 0.39 mM
O=C(O)c1ccc2cc[nH]c2c1 [I1] | 6.5 ± 1.1 mM | 9.6 ± 1.5 mM | No binding | –
O=C(O)c1cccc2[nH]cnc12 [B3] | 3.4 ± 0.3 mM | 4.3 ± 0.4 mM | – | Kd [3]: 3.3 ± 0.9 mM
